# Laboratory results reported in the OligoGym collection.
# “And” between values parts separate entries of the source, which are not always exact repeats. Equal entries are not always repeated. These antisense oligonucleotides have a phosphorothioate backbone; sugars and methylation of C are not fully specified.
# Target: PIK3CD
# Details: ASO
# Further: test concentration or dose not given here.
row,Sequence,remaining target (mRNA or protein) (fraction of control)
1,GGCAGTCCACCCCAGGGGGC,0.76 and 0.56
2,GGGCTGGGAGGAGCCACTAC,≥ 1
3,GGGGCATCCTGCGTTGTTAC,≥ 1
4,GTCGGTTCTTTCCCGTTAGG,0.52 and 0.35
5,TGGAATAGTCCAAGAAAGAC,≥ 1

# Target: MAP2K1
# Details: ASO
row,Sequence,remaining target (mRNA or protein) (fraction of control)
1,AACCAGAAGTCTACAGAT,0.69
2,AAGAGTAGAATCTTGGCA,0.9
3,AAGGATTTTCATACAATT,0.7
4,ACTAAGTATCCCACACAG,0.16
5,AGCAGCATGGGTTGGTGT,0.41
6,AGGAGGCCCAAAAGCGAC,0.65
7,AGGCCGATGGTGGAGCAG,0.14
8,AGTCACAGAGCTTGATCT,0.31
9,AGTCGATGAGCTGCCCGC,0.24
10,ATTAAGCATTTATTCACA,≥ 1
11,CAAAATCCACTTCCTCAG,0.28
12,CACCCAAACATCAGCTCC,0.41
13,CATCTGGAGGAGGGATGG,0.71
14,CATGAACCATGAGTTGCT,0.24
15,CCCAGCTCACTGATCTTC,0.89
16,CTACCCACATTCACCAAA,0.72
17,CTAGGATGTTGGAGGGCT,0.27
18,CTCTGTGCATGATCTTGT,0.51
19,CTCTTTGTTGCTTCCCAA,0.38
20,CTGACTGCACAGAGTAAT,0.2

row,Sequence,remaining target (mRNA or protein) (fraction of control)
1,GAAGGATCTCACAAGGCT,0.27
2,GAGTTCTACATGAAAAGC,0.66
3,GCAGTTTTGGAGGAGGCT,0.32
4,GCTTGTGGGAGACCTTGA,0.65
5,GGCCTTTTATTACAGCAA,0.5
6,GGCGTCGGCTTCTTCTTG,0.3
7,GTAATCCAACAACTCAAA,0.79
8,GTACGGAGAGTTGCACTC,0.25
9,GTTGGTCTCCGCAGAGCT,0.37
10,TAACGCGCTTCCAACTCC,0.3
11,TACAACAGCATTGGTACT,0.23
12,TACCAGAGACAGTCCCAT,0.24
13,TCTCAGCCGCATCTCCTT,0.13
14,TCTCGCTTCCTCCCTCGT,0.74
15,TCTGCTTCTGGGTAAGAA,≥ 1
16,TGAAGCCCCAGCTATCAT,0.41
17,TGCAGATACTGATCTCGC,0.29
18,TGGAGTCTTTCTGGCGAC,0.44
19,TTCCAGCTTTCTTCAGGA,0.58

# Target: DUSP8
# Details: ASO
row,Sequence,remaining target (mRNA or protein) (fraction of control)
1,AAGCTGTCTGCGGCCAGCAC,0.71
2,ACCTGGCTGCGTGCAGCCGG,≥ 1
3,AGAGCGGGAGATGCCAGCCA,0.32
4,AGAGGTGAGGCAGGATGCGG,≥ 1
5,AGCAGATGTTGACGGAGCTG,≥ 1
6,AGCTGGCCCAGGAAGTTGAA,0.95
7,AGGAGAGGTGCAGGCCGCGC,0.91
8,ATCAGATCCTTGTTTAGGAC,≥ 1
9,CACCATGCCCTCCTCGAACT,0.84
10,CAGGCTTGCCCTCGCAGAGG,≥ 1
11,CAGGGCGGCCAGCAGCTTCA,≥ 1
12,CCCAGGCCCGCCCCGCAGCA,0.66
13,CCCGTCGGGCGACGGCGTGC,≥ 1
14,CCGACGGGCTGTCCAGCTTG,0.94
15,CCTCAGGCGCGGCGTCCGGG,≥ 1
16,CGCCCGCCCGGCCGAAGGGC,0.86
17,CTCAGGCCGCCCTCCCTGGC,0.65
18,GACTGAAGGTGGCCTCGTAT,0.69
19,GAGAGCTTGGCTTTATCGAT,0.68
20,GAGCCGGTCCCCAGCCATGG,≥ 1

row,Sequence,remaining target (mRNA or protein) (fraction of control)
1,GAGCTCGAGGACCACCCGCA,0.89
2,GCCTGTCCTTCACGAACCTG,≥ 1
3,GCTGGACCTCGCTCGCGCTC,≥ 1
4,GGAGAAGGAGCGCTTGAGGC,0.98
5,GGCAGGCAGGGCTGGGAGAG,≥ 1
6,GGCCAGCCGGTCCGCGCGTC,0.52
7,GGCTGCTCCGACGGCCCAGG,≥ 1
8,GGGCAGCCCGGGCGCCGACA,0.81
9,GTAGGTGGTGGCAGCCGTGG,≥ 1
10,GTCAGGACACCTCGATGACC,≥ 1
11,GTCGAAGCAGCCGTCCAGCT,≥ 1
12,TCACCTTGCCCTGCTGCAGC,0.33
13,TCGCCTGCTTGCCCAGGGCG,0.69
14,TCTGCCGGGCCGCATCGCCG,0.35
15,TGCCCATGGTCTTCATGATG,0.7
16,TGGTCATAGACCACCACGTC,≥ 1
17,TTCTTTGCATTATATATAAT,≥ 1
18,TTGCTGGCGTTGAGGACGTA,0.45
19,TTTCACAGTAGTTGTCGTTG,≥ 1

# Target: PIK3CB
# Details: ASO
row,Sequence,remaining target (mRNA or protein) (fraction of control)
1,AACATTTGGAGTGTCAACAT,≥ 1
2,AAGTTTTCAGGGATGGATGG,≥ 1
3,AATTGTGAACTTGCTTCCAT,0.74
4,ACCAGCCCTGACATGAACTT,0.45
5,ACTATGTCTGTCACCAATCC,0.52
6,ACTGGATATAAATCCCAGTG,≥ 1
7,AGGTATGGAGCCATCAGATG,≥ 1
8,AGTAGCCAGCACAGGACAGT,≥ 1
9,ATGAACAGCTACGATGAGCT,0.73
10,ATGCAAACATATAGGAGTCA,≥ 1
11,ATTAGTGGATGATCACCAAA,0.99
12,ATTCCCATGCCGTCGTAAAA,≥ 1
13,ATTGAGTGCTTCAACCTGCT,≥ 1
14,CACACAGTTCCGGATATACT,≥ 1
15,CACCGCCCAGATGTCAAGGA,0.5
16,CAGCGCAAAGAGAGTGATGA,≥ 1
17,CATATTAGGAGACACTTGAA,≥ 1
18,CCATAACATCTGCTTAATAT,≥ 1
19,CTGGAAGAAAAGGTCTGACA,≥ 1
20,CTTCCCATGAATAGTCAAAC,0.53

row,Sequence,remaining target (mRNA or protein) (fraction of control)
1,GAGGATAACACATGGGTTCA,≥ 1
2,GAGGTTGAACATTGGGTAAT,0.79
3,GATCCTTCAAGGAATCAAAT,0.91
4,GATGTCTGCCATAGCAGGAG,≥ 1
5,GGCATTATGAAACTGAAGCA,≥ 1
6,GGCCAAATCTGAAGCAGCGC,≥ 1
7,GGGCAAAAGGAAATCCACAG,≥ 1
8,GTCAATATCCATAAGGAGGT,≥ 1
9,TAAACACGTCCTGGCAGTTT,≥ 1
10,TAAGGCAACATCCGAAGATC,0.96
11,TACATTTTCTTGATCTTGCA,≥ 1
12,TATAAGAAATGGTAGCTTCC,≥ 1
13,TATTGAGAAAGTTCTTCATC,0.86
14,TGCAACACATAATCATAGGG,≥ 1
15,TGCCAATTCATTTACTTTGA,≥ 1
16,TGCTATCTGTGAATCCACCG,0.99
17,TGTAATATTATGTCTCCAGT,0.9
18,TTCACTTTAGTAGTCCAGCT,0.89
19,TTCCCGAGGTACCTCCAACT,0.7

# Target: DUSP9
# Details: ASO
row,Sequence,remaining target (mRNA or protein) (fraction of control)
1,AAGAACCGCGACAGGTTCTG,0.83
2,ACCCTCCATGGGCGATCGGC,0.43
3,AGAAGAGGCAGGCTCCGAGC,0.53
4,AGACCCTCCATGGGCGATCG,0.45
5,AGCCCCAGTGATCCCGTCAA,≥ 1
6,AGCGGCCCAGACCCTCCATG,0.46
7,AGGAGCAGGAGCCGCGGCCG,0.7
8,AGGCCATGGATGTGGGCGGC,0.57
9,AGGCCCCAGCCCCGAGAGGC,0.54
10,ATTAGGACGGCAGCCCGCGT,≥ 1
11,CAGCAGGGTGCCCAGCACCG,≥ 1
12,CATGGGCGATCGGCTCCCTA,0.85
13,CCACGGGCACTGGACCGGGC,0.5
14,CCAGACCCTCCATGGGCGAT,≥ 1
